Test results as given in PMC7915527, “Development of a Liquid Chromatography/Mass Spectrometry-Based Inhibition Assay for the Screening of Steroid 5-α Reductase in Human and Fish Cell Lines” (Molecules, 2021).
Several values for one entry are separate records, joined by “and”; a condition that tells them apart may be missing. Equal entries are not always repeated. Where two headings read alike, the source gives them in different places.

Columns and labels:
SRD5A2 = target: T1, SRD5A2 (Homo sapiens, UniProt P31213); experiment: Cell-based 5AR activity/inhibition assay in HEK-293 cells transiently overexpressing SRD5A2; conditions: 95% CI in parentheses
T1 sequence (P31213 1-254): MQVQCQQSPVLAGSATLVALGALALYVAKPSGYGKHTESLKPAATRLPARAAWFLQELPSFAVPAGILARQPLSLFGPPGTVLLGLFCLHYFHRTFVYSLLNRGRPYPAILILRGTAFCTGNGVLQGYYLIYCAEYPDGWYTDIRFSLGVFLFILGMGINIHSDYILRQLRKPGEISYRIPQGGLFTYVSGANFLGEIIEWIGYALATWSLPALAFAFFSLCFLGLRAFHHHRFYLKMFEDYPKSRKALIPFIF
Protocol: (§1) For the calculation of KM, testosterone was added in increments of 0 to 50 µM to non-vector- and SRD5A1-HEK293 cells and in increments of 0 to 10 µM to SRD5A2-HEK293 cells 24 h after transfection. The DHT levels were measured (Figure 4a). […] The IC50 values were calculated (Table 3).
(§2) Transient overexpression was induced using transfection of cDNA with lipofectamine (Thermo Fisher Scientific, Waltham, MA, USA). HEK-293 cells were seeded in 24-well plates at a density of 10^5 cells per well and incubated at 37 °C in an atmosphere of 5% CO2. After overnight culture, 500 ng of cDNA and 0.75 µL of the Lipofectamine 3000 reagent were diluted in the Opti-MEM medium and incubated for 15 min for DNA-lipid complex formation. The DNA-lipid complex was added to the wells and incubated for 6 h. After incubation, the sample-treated medium was changed to the complete culture medium and incubated for 18 h.
(§3) All cells were seeded on a 24-well plate. The seeding densities of the DU-145, LNCaP, and SW-13 cells were 0.5 × 10^5 cells per well. The ZFL and RTG-2 cells were seeded at densities of 1.0 × 10^5 cells and 2.0 × 10^5 cells, respectively. […]
(§4) The extracts were analyzed for DHT via ultra-performance LC-MS/MS (Agilent 1200/6460C QQQMSD coupled Jet Stream technology electrospray ion (ESI) source; Agilent Technologies, Santa Clara, CA, USA). […]

5AR in RTG-2 cells = experiment: Cell-based 5AR activity/inhibition assay in rainbow trout gonad cells (RTG-2)
Protocol: (§5) For the calculation of KM for optimized assay conditions, ZFL and RTG-2 cells were treated with testosterone in increments of 0 to 50 µM. The DHT levels were measured (Figure 5a). Based on the calculated KM values, inhibition assays were conducted (Figure 5b).
(§6) HEK-293, LNCaP, DU-145, SW-13, and ZFL cell lines were obtained from the American Type Culture Collection (ATCC; Manassas, VA, USA) and cultured according to their instructions. The HEK-293 cells were cultured in a high-glucose DMEM that contained 10% FBS, 100 units/mL penicillin, and 100 µg/mL streptomycin. The DU-145 cells were cultured in EMEM that contained 10% FBS, 100 units/mL penicillin, and 100 µg/mL streptomycin. The LNCaP cells were cultured in RPMI 1640 that contained 10% FBS, 100 units/mL penicillin, and 100 µg/mL streptomycin at 37 °C in 5% CO2. SW-13 cells were cultured in Leibovitz’s L-15 medium with 10% FBS at 37 °C without CO2. ZFL cells were cultured in a complete medium that was composed of 50% L-15, 35% DMEM medium, and 15% F12 medium that contained […] sodium bicarbonate, 15 mM HEPES, 0.01 mg/mL bovine insulin, 50 ng/mL mouse EGF, 5% FBS, and 0.5% trout serum at 28 °C without CO2. RTG-2 cells were obtained from Prof. Kristin Schirmer (EAWAG, Switzerland) and cultured in the L-15 medium with 5% FBS, 100 units/mL penicillin, and 100 µg/mL streptomycin at 20 °C without CO2.
(§7) All cells were seeded on a 24-well plate. The seeding densities of the DU-145, LNCaP, and SW-13 cells were 0.5 × 10^5 cells per well. The ZFL and RTG-2 cells were seeded at densities of 1.0 × 10^5 cells and 2.0 × 10^5 cells, respectively. After overnight culture, the culture media was aspirated from each well and treated with testosterone that was diluted in the complete medium for 3 h and 6 h. In the case of transiently transfected HEK-293 cells, the testosterone treatment was applied after transient overexpression under the same conditions as other cell lines. The treated media were collected from each well and centrifuged at 3000× g for 5 min at 4 °C. The supernatants were stored at −80 °C until needed. […] The seeding conditions of all cells were the same as those previously described. After overnight culture, the culture medium was aspirated, and the cells were cotreated with a medium that contained testosterone and inhibitors for 3 h. The medium was collected from each well and centrifuged at 3000× g for 5 min at 4 °C. The supernatants were stored at −80 °C until analysis.
A method that was modified by was used for DHT extraction from the samples. Each sample, which included the calibration, QC, and assay medium, was placed in 1.5 mL PP tubes and spiked with a 0.5 ng/mL DHT-D3 internal standard prior to extraction. All sample tubes were vortexed for 5 s, and the samples were extracted using a liquid-liquid extraction (LLE) method via the addition of 600 µL of MTBE. The samples were vortexed and centrifuged at 4500× g rpm for 5 min, and the organic phase was transferred into glass tubes. The extraction step was repeated once, and the organic phase extracts were dried under a stream of nitrogen. After the samples were dried, 100 µL of the derivatization reagent and 100 µL of TEA were added for DHT derivatization. […]
(§8) The extracts were analyzed for DHT via ultra-performance LC-MS/MS (Agilent 1200/6460C QQQMSD coupled Jet Stream technology electrospray ion (ESI) source; Agilent Technologies, Santa Clara, CA, USA).

SRD5A1 = target: T2, SRD5A1 (Homo sapiens, UniProt P18405); experiment: Cell-based 5AR activity/inhibition assay in HEK-293 cells transiently overexpressing SRD5A1; conditions: IC50 Value, SRD5A1-overexpressing HEK-293 cells; testosterone at KM, 3 h; 95% CI in parentheses
T2 sequence (P18405 1-259): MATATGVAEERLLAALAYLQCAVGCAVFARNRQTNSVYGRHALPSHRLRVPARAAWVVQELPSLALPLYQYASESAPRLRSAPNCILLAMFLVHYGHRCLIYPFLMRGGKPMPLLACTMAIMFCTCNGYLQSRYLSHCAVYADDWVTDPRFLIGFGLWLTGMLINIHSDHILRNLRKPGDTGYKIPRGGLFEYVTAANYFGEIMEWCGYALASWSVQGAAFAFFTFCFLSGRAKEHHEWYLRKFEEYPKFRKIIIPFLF
Protocol: as §1, §2, §3, §4

5AR in ZFL cells = experiment: Cell-based 5AR activity/inhibition assay in zebrafish liver cells (ZFL)
Protocol: as §5, §6, §7
A method that was modified by was used for DHT extraction from the samples. […]
as §8

[1] = target: rat and human 5α-reductase; set-up: method as in PMID 14753249, PMID 8645628, PMID 7734404, PMID 9605412, PMID 16818707; conditions: ref [14],[43],[44],[45],[46],[47]; cited from earlier work
[2] = target: T3, 5AR (SRD5A1) in DU-145 cells (Homo sapiens, UniProt P18405); conditions: DHT formation from testosterone 0 to 10 µM, 95% CI in parentheses
T3 sequence (P18405 1-259): T2 sequence (P18405 1-259)

[3] = substrate: C[C@]12CC[C@H]3[C@@H](CCC4=CC(=O)CC[C@@]43C)[C@@H]1CC[C@@H]2O; experiment: cells, lysate or membranes; conditions: 95% CI in parentheses
[4] = read-out: IC50 Value, testosterone at KM, 3 h, 95% CI in parentheses
[5] = testosterone at KM, 3 h, 95% CI in parentheses, read-out: IC50 Value
[6] = testosterone 0 to 50 µM, 95% CI in parentheses
[7] = other: LNCaP cells, testosterone 0 to 10 µM
[8] = other: SRD5A1-HEK293 cells, testosterone 0 to 50 µM, 37.0 °C
[9] = other: DU-145 cells, testosterone 0 to 10 µM
[10] = other: SRD5A2-HEK293 cells, testosterone 0 to 10 µM, 37.0 °C

C[C@]12C=CC(=O)N[C@@H]1CC[C@@H]1[C@@H]2CC[C@]2(C)[C@@H](C(=O)Nc3cc(C(F)(F)F)ccc3C(F)(F)F)CC[C@@H]12 [Dutasteride, dutasteride]
IC50 (SRD5A2; IC50 Value, SRD5A2-overexpressing HEK-293 cells, testosterone at KM, 3 h): 1.19 nM | IC50 (5AR in RTG-2 cells; [4]): 13.2 nM | IC50 (SRD5A1): 1.27 nM | IC50 (5AR in ZFL cells; [4]): 7.33 nM | IC50 [1]: 0.2 to 7 nM

CC(C)(C)NC(=O)[C@H]1CC[C@H]2[C@@H]3CC[C@H]4NC(=O)C=C[C@]4(C)[C@H]3CC[C@]12C [Finasteride, finasteride]
IC50 (5AR in RTG-2 cells; testosterone at KM, 3 h, 95% CI in parentheses, listed as finasteride, read-out: IC50 Value): 2460 nM | IC50 (5AR in RTG-2 cells; [5]): 2670 nM | IC50 (5AR in ZFL cells; [5]): 142 nM

C[C@]12CC[C@H]3[C@@H](CCC4=CC(=O)CC[C@@]43C)[C@@H]1CC[C@@H]2O [testosterone]
Vmax (SRD5A2; SRD5A2-HEK293 cells, testosterone 0 to 10 µM): 22.52 nmol/L/h | Vmax [2]: 75.55 nmol/L/h | Km (5AR in RTG-2 cells; [6]): 1.12 nM | Vmax (5AR in RTG-2 cells; [6]): 13.09 (11.88–14.37) nmol L^−1 h^−1 | Km (5AR in ZFL cells; [6]): 0.46 nM | Vmax (5AR in ZFL cells; [6]): 116.6 nmol L^−1 h^−1 and 116.60 (106.9–126.9) nmol L^−1 h^−1

B1: 5AR (SRD5A1) in LNCaP cells (Homo sapiens) (protein)
chain: T2 sequence (P18405 1-259)
Km [3, 7]: 15.10 (12.35–19.25) nM | Vmax [3, 7]: 0.000644 µM/min

B2: SRD5A1 (Homo sapiens) (protein)
chain: T2 sequence (P18405 1-259)
Km [3, 8]: 2.29 (1.70–3.09) nM | Vmax [3, 8]: 0.000143 µM/min

B3: 5AR (SRD5A1) in DU-145 cells (Homo sapiens) (protein)
chain: T2 sequence (P18405 1-259)
Km [3, 9]: 9.15 (7.01–12.81) nM | Vmax [3, 9]: 0.00126 µM/min

B4: SRD5A2 (Homo sapiens) (protein)
chain: T1 sequence (P31213 1-254)
Km [3, 10]: 0.36 (0.18–0.65) nM | Vmax [3, 10]: 0.000375 µM/min
